The source of these data is patent EP4786458A1, “ANALGESIC COMPOUND, PREPARATION METHOD THEREFOR, AND USE THEREOF” (West China Hospital, Sichuan University, priority 2023, dated 2025).

Series [1] can be described thus: Loss of tail withdrawal reflex (LOTWR) in rats, single intravenous injection, dose escalation for efficacy and severe adverse reactions. In kind it is in vivo, SD rats. The settings on record: rat, in vivo, single intravenous injection, minimum dose resulting in serious adverse reactions / minimum effective dose, class symbol, read-out: The safety therapeutic index. The procedure:
(§1) Using the loss of tail withdrawal reflex (LOTWR) in rats as an indicator, the potent analgesic effect of the compounds according to the present invention was evaluated.
(§2) 1.1 Experimental animals: Adult male SD rats weighing between 220-300 g were selected for the experiment. The rats were housed in sawdust-bedded cages with a temperature of 25+1°C, humidity ranging from 40% to 60%, and a 12-hour light/12-hour dark cycle. Each cage contained no more than 5 rats, with free access to water and food.
(§3) • (1) The compound of the present invention, along with the positive control drug remifentanil and the negative control (vehicle), were administered in fixed volumes. A dose escalation approach was employed to determine the minimum effective dose at which the compound of the present invention produces potent analgesic effects, as well as the minimum dose at which severe adverse reactions first appear. • (2) LOTWR lasting for 30 seconds was used as the criterion for generating potent analgesic effects. During the experiment, drugs were administered via the tail vein of rats, with a dosage volume of 0.6 mL per rat and a dosage rate of 0.02 mL/s. Subsequently, an alligator clip was applied at a distance of 1 cm from the base of the rat's tail, clamping once longitudinally and once transversely before being left in place. Meanwhile, the distal end of the alligator clip was continuously oscillated (30 times/min) to continuously generate stimulation. […] When all results were "no LOTWR" after 10 minutes of testing (5 trials), the test was stopped and recorded as "ineffective." • (3) All compounds would undergo a dose escalation for efficacy evaluation, starting from 1 mg/kg (due to the high potency of remifentanil, the lowest dose was set at 1 µg/kg), followed by 5 mg/kg, 10 mg/kg, 20 mg/kg, and so on (increasing by 20 mg/kg increments after 20 mg/kg). The dose escalation would be stopped when rats show signs of death, and the lowest effective dose and the lowest dose at which severe adverse reactions occur would be recorded throughout the process. In this study, severe adverse reactions are defined as apnea, generalized tonic rigidity, convulsions, opisthotonus, seizures, etc.
(§4) 1.3 Evaluation indicators: the minimum effective dose; the minimum dose resulting in serious adverse reactions; the safety therapeutic index = "the minimum dose resulting in serious adverse reactions" / "the minimum effective dose".

The subject of another series is rats. Described as above. The class given is in vivo, SD rats. The settings on record: Rattus norvegicus, single intravenous injection (tail vein), LOTWR lasting for 30 seconds as criterion, class symbol, read-out: The minimum effective dose. Here is the method:
as §1, §2, §3, §4

Each structure is given as a SMILES string. Bounds are passed on as bounds.

Consider `Cc1ccc(NCC(=O)OCc2ccsc2)c(N(C)C)c1` [Example 1], for which the selectivity ratio in series [1] is above 4. Further, the minimal effective dose with rats was at most 10 mg/kg.
`Cc1ccc(NCC(=O)OCc2cccs2)c(N(C)C)c1` [Example 2]: in series [1], the selectivity ratio was 2 to 4. Besides, the minimal effective dose with rats was above 30 mg/kg.
In the case of `CN(C)c1ccccc1NCC(=O)OCc1cccs1` [Example 4], the selectivity ratio in series [1] is above 4. For the same compound, in the series on rats, the minimal effective dose was at most 10 mg/kg.
Regarding `CN(C)c1cc(F)ccc1NCC(=O)OCc1cccs1` [Example 5], in series [1], the selectivity ratio was at most 2. The minimal effective dose in the series with rats fell in the range of 20 to 30 mg/kg.
In the case of `Cc1ccc(OCC(=O)OCc2cccs2)c(N(C)C)c1` [Example 6], in series [1], the selectivity ratio lay within 2 to 4. For the same compound, the minimal effective dose in the series with rats is at most 10 mg/kg.
For `Cc1ccc(NCC(=O)OCc2ccco2)c(N(C)C)c1` [Example 7] the same measures were 2 to 4 and 20 to 30 mg/kg.
For the compound `Cc1ccc(NCC(=O)OCc2cccs2)cc1N(C)C` [Example 8], the selectivity ratio in series [1] is above 4. For the same compound, the minimal effective dose in the series on rats was in the range of 10 to 20 mg/kg.
In the same order, the values of `Cc1ccc(NCC(=O)NCc2ccno2)c(N(C)C)c1` [Example 9] are above 4 and at most 10 mg/kg.
`Cc1ccc(OCC(=O)NCc2cccs2)c(N(C)C)c1` [Example 10]: the selectivity ratio in series [1] is above 4. Moreover, the minimal effective dose in the series with rats was at most 10 mg/kg.
For `Cc1ccc(NCC(=O)NCc2ccco2)c(N(C)C)c1` [Example 11] the same measures were above 4 and at most 10 mg/kg.
Take `Cc1ccc(OCC(=O)NCc2ccco2)c(N(C)C)c1` [Example 12]: the selectivity ratio in series [1] was above 4. Also, in the series on rats, the minimal effective dose fell in the range of 10 to 20 mg/kg.
Consider `CN(C)c1cccc(NCC(=O)OCc2cccs2)c1` [Example 13], for which the selectivity ratio in series [1] was at most 2. Also, the minimal effective dose in the series on rats is above 30 mg/kg.
For `Cc1ccc(SCC(=O)OCc2cccs2)c(N(C)C)c1` [Example 14] the same measures were 2 to 4 and above 30 mg/kg.
In the case of `CN(C)c1ccccc1NCC(=O)OCc1ccsc1` [Example 15], the selectivity ratio in series [1] was in the range of 2 to 4. In the series with rats, the minimal effective dose was above 30 mg/kg.
Regarding `Cc1ccc(NCC(=O)NCc2ccoc2)c(N(C)C)c1` [Example 16], the selectivity ratio in series [1] is at most 2. The minimal effective dose in the series with rats is above 30 mg/kg.
With `Cc1ccc(NCC(=O)NCc2ccns2)c(N(C)C)c1` [Example 17], the selectivity ratio in series [1] was above 4. Also, the minimal effective dose in the series with rats lay in the range of 10 to 20 mg/kg.
As for `Cc1ccc(NCC(=O)OCc2ccoc2)c(N(C)C)c1` [Example 18], in series [1], the selectivity ratio is at most 2. The minimal effective dose in the series with rats is above 30 mg/kg.
With `Cc1ccc(NCC(=O)NCc2cnsc2)c(N(C)C)c1` [Example 19], the selectivity ratio in series [1] is 2 to 4. Moreover, the minimal effective dose in the series with rats is above 30 mg/kg.
As to `Cc1ccc(SCC(=O)OCc2ccco2)c(N(C)C)c1` [Example 20], the selectivity ratio in series [1] is at most 2. Besides, in the series with rats, the minimal effective dose was above 30 mg/kg.
For the compound `Cc1ccc(NCC(=O)NCc2ccco2)cc1N(C)C` [Example 21], the selectivity ratio in series [1] is at most 2. The minimal effective dose in the series on rats was above 30 mg/kg.
For `Cc1ccc(NCC(=O)NCc2ncc[nH]2)c(N(C)C)c1` [Example 22] the same measures were at most 2 and above 30 mg/kg.
For the compound `Cc1ccc(OCC(=O)OCc2ccco2)c(N(C)C)c1` [Example 23], the selectivity ratio in series [1] was at most 2. Besides, in the series on rats, the minimal effective dose is above 30 mg/kg.
As to `Cc1ccc(OCC(=O)OCc2cccs2)cc1N(C)C` [Example 24], the selectivity ratio in series [1] is at most 2. The minimal effective dose in the series with rats is above 30 mg/kg.
In the same order, the values of `Cc1ccc(NCC(=O)NCc2ccns2)cc1N(C)C` [Example 25] are 2 to 4 and 10 to 20 mg/kg.
As for `Cc1ccc(NCC(=O)NCc2ccccc2)c(N(C)C)c1` [Example 27], the selectivity ratio in series [1] was at most 2. The minimal effective dose with rats was at most 10 mg/kg.
In the same order, the values of `Cc1cc(C)cc(CNC(=O)CNc2ccc(C)cc2N(C)C)c1` [Example 28] are at most 2 and 20 to 30 mg/kg.
Regarding `Cc1ccc(NCC(=O)NCc2cccs2)cc1N(C)C` [Example 29], the selectivity ratio in series [1] is at most 2. In addition, the minimal effective dose in the series on rats was above 30 mg/kg.
Regarding `Cc1ccc(NCC(=O)OCc2ccoc2)cc1N(C)C` [Example 30], the selectivity ratio in series [1] was in the range of 2 to 4. Besides, in the series on rats, the minimal effective dose is above 30 mg/kg.
In the same order, the values of `Cc1ccc(NCC(=O)NCc2cc(C)nn2C)c(N(C)C)c1` [Example 31] are 2 to 4 and 10 to 20 mg/kg.
For `Cc1ccc(NCC(=O)OCc2cc(C)nn2C)c(N(C)C)c1` [Example 32] the same measures were above 4 and at most 10 mg/kg.
As to `Cc1ccc(NCC(=O)NCc2ccnn2C)c(N(C)C)c1` [Example 33], the selectivity ratio in series [1] was at most 2. Also, the minimal effective dose in the series with rats is above 30 mg/kg.
Take `Cc1ccc(NCC(=O)OCc2ccnn2C)c(N(C)C)c1` [Example 34]: the selectivity ratio in series [1] is above 4. Besides, the minimal effective dose with rats was at most 10 mg/kg.
As for `Cc1ccc(NCC(=O)OCc2ccnn2C)cc1N(C)C` [Example 35], the selectivity ratio in series [1] is above 4. Besides, in the series on rats, the minimal effective dose was at most 10 mg/kg.
In the same order, the values of `Cc1ccc(OCC(=O)NCc2ccsc2)c(N(C)C)c1` [Example 36] are 2 to 4 and 10 to 20 mg/kg.
As to `Cc1cc(COC(=O)CNc2ccc(C)c(N(C)C)c2)n(C)n1` [Example 37], in series [1], the selectivity ratio is above 4. For the same compound, the minimal effective dose in the series on rats was at most 10 mg/kg.
Consider `Cc1ccc(NCC(=O)OCc2ccsc2)cc1N(C)C` [Example 38], for which the selectivity ratio in series [1] is at most 2. For the same compound, the minimal effective dose in the series on rats is above 30 mg/kg.
Turning to `Cc1ccc(NCC(=O)OCc2ccco2)cc1N(C)C` [Example 39], the selectivity ratio in series [1] was above 4. Further, the minimal effective dose in the series with rats fell in the range of 10 to 20 mg/kg.
On to `Cc1ccc(NCC(=O)OCc2ccno2)c(N(C)C)c1` [Example 40], for which, in series [1], the selectivity ratio is at most 2. For the same compound, the minimal effective dose in the series with rats was above 30 mg/kg.
